Source: PubChem BioAssay AID1963976 (Molecular Pharmacology Branch, DTP, NCI, 2024)

Test system: 435261-313-R-J1-PDC tumor spheroid viability
Assay: Anticancer human tumor 435261-313-R-J1-PDC patient-derived colon adenocarcinoma cell line growth inhibition [PI3K]
Details: spheroids with HUVEC and MSC; for IC50: curve of first compound; for viability, T/C: stronger effect = lower value; active = viability on the fitted dose curve at most 10% of control; inactive = the rest
Outline: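 Stroma-containing spheroids: tumor line, pooled-donor HUVEC, hMSC. Treatments: targeted agents with PI3K inhibitors. Dosing: clinically relevant, half-log spacing, 10 microM ceiling without known Cmax. Read-out: cell viability.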
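Also: spheroids exposed to compounds for 7 days.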

CNC(=O)c1ccc(N2C(=S)N(c3ccc(C#N)c(C(F)(F)F)c3)C(=O)C2(C)C)cc1F + CC(Nc1ncnc2nc[nH]c12)c1cc2cccc(Cl)c2c(=O)n1-c1ccccc1
> 10000 nM: IC50 (second compound 0.0316 µM) | IC50 (second compound 0.1 µM) | IC50 (second compound 0.316 µM) | IC50 (second compound 1 µM) | IC50 (second compound 3.16 µM) | IC50 (second compound 10 µM)
inactive: viability, T/C (second compound 0.0316 µM, first compound 0.0316 µM) 106% | viability, T/C (second compound 0.0316 µM, first compound 0.1 µM) 70.5% | viability, T/C (second compound 0.0316 µM, first compound 0.316 µM) 72.3% | viability, T/C (second compound 0.0316 µM, first compound 1 µM) 82.8% | viability, T/C (second compound 0.0316 µM, first compound 3.16 µM) 99.8% | viability, T/C (second compound 0.0316 µM, first compound 10 µM) 74.8% | viability, T/C (second compound 0.1 µM, first compound 0.0316 µM) 101% | viability, T/C (second compound 0.1 µM, first compound 0.1 µM) 90.6% | viability, T/C (second compound 0.1 µM, first compound 0.316 µM) 111% | viability, T/C (second compound 0.1 µM, first compound 1 µM) 121% | viability, T/C (second compound 0.1 µM, first compound 3.16 µM) 79.7% | viability, T/C (second compound 0.1 µM, first compound 10 µM) 65.7% | viability, T/C (second compound 0.316 µM, first compound 0.0316 µM) 78.5% | viability, T/C (second compound 0.316 µM, first compound 0.1 µM) 90.4% | viability, T/C (second compound 0.316 µM, first compound 0.316 µM) 103% | viability, T/C (second compound 0.316 µM, first compound 1 µM) 79.8% | viability, T/C (second compound 0.316 µM, first compound 3.16 µM) 102% | viability, T/C (second compound 0.316 µM, first compound 10 µM) 81.8% | viability, T/C (second compound 1 µM, first compound 0.0316 µM) 95.1% | viability, T/C (second compound 1 µM, first compound 0.1 µM) 97.1% | viability, T/C (second compound 1 µM, first compound 0.316 µM) 75.9% | viability, T/C (second compound 1 µM, first compound 1 µM) 86.5% | viability, T/C (second compound 1 µM, first compound 3.16 µM) 73.1% | viability, T/C (second compound 1 µM, first compound 10 µM) 66.4% | viability, T/C (second compound 3.16 µM, first compound 0.0316 µM) 101% | viability, T/C (second compound 3.16 µM, first compound 0.1 µM) 91.6% | viability, T/C (second compound 3.16 µM, first compound 0.316 µM) 69.5% | viability, T/C (second compound 3.16 µM, first compound 1 µM) 64.5% | viability, T/C (second compound 3.16 µM, first compound 3.16 µM) 59.3% | viability, T/C (second compound 3.16 µM, first compound 10 µM) 67.3% | viability, T/C (second compound 10 µM, first compound 0.0316 µM) 55% | viability, T/C (second compound 10 µM, first compound 0.1 µM) 44.7% | viability, T/C (second compound 10 µM, first compound 0.316 µM) 64% | viability, T/C (second compound 10 µM, first compound 1 µM) 68.6% | viability, T/C (second compound 10 µM, first compound 3.16 µM) 58.5% | viability, T/C (second compound 10 µM, first compound 10 µM) 39.8%

Cn1cnc2c(F)c(Nc3ccc(Br)cc3Cl)c(C(=O)NOCCO)cc21 + CC(Nc1ncnc2nc[nH]c12)c1cc2cccc(Cl)c2c(=O)n1-c1ccccc1
16 nM: IC50 (second compound 0.316 µM)
inactive: viability, T/C (second compound 0.0316 µM, first compound 0.00949 µM) 60.3% | viability, T/C (second compound 0.0316 µM, first compound 0.03 µM) 35.7% | viability, T/C (second compound 0.0316 µM, first compound 0.0949 µM) 26.9% | viability, T/C (second compound 0.0316 µM, first compound 0.3 µM) 25.1% | viability, T/C (second compound 0.0316 µM, first compound 0.949 µM) 22.2% | viability, T/C (second compound 0.0316 µM, first compound 3 µM) 18.6% | viability, T/C (second compound 0.1 µM, first compound 0.00949 µM) 51.9% | viability, T/C (second compound 0.1 µM, first compound 0.03 µM) 34.6% | viability, T/C (second compound 0.1 µM, first compound 0.0949 µM) 23% | viability, T/C (second compound 0.1 µM, first compound 0.3 µM) 25% | viability, T/C (second compound 0.1 µM, first compound 0.949 µM) 21.7% | viability, T/C (second compound 0.1 µM, first compound 3 µM) 16.6% | viability, T/C (second compound 0.316 µM, first compound 0.00949 µM) 59.9% | viability, T/C (second compound 0.316 µM, first compound 0.03 µM) 38.6% | viability, T/C (second compound 0.316 µM, first compound 0.0949 µM) 25% | viability, T/C (second compound 0.316 µM, first compound 0.3 µM) 22.7% | viability, T/C (second compound 0.316 µM, first compound 0.949 µM) 21.4% | viability, T/C (second compound 0.316 µM, first compound 3 µM) 13.9% | viability, T/C (second compound 1 µM, first compound 0.00949 µM) 43.4% | viability, T/C (second compound 1 µM, first compound 0.03 µM) 34.5% | viability, T/C (second compound 1 µM, first compound 0.0949 µM) 26.4% | viability, T/C (second compound 1 µM, first compound 0.3 µM) 22.2% | viability, T/C (second compound 1 µM, first compound 0.949 µM) 21% | viability, T/C (second compound 1 µM, first compound 3 µM) 12.1% | viability, T/C (second compound 3.16 µM, first compound 0.00949 µM) 38.8% | viability, T/C (second compound 3.16 µM, first compound 0.03 µM) 29.6% | viability, T/C (second compound 3.16 µM, first compound 0.0949 µM) 21% | viability, T/C (second compound 3.16 µM, first compound 0.3 µM) 20.6% | viability, T/C (second compound 3.16 µM, first compound 0.949 µM) 19.5% | viability, T/C (second compound 3.16 µM, first compound 3 µM) 12.3% | viability, T/C (second compound 10 µM, first compound 0.00949 µM) 22.3% | viability, T/C (second compound 10 µM, first compound 0.03 µM) 21.1% | viability, T/C (second compound 10 µM, first compound 0.0949 µM) 19.6% | viability, T/C (second compound 10 µM, first compound 0.3 µM) 16.3% | viability, T/C (second compound 10 µM, first compound 0.949 µM) 15.9% | viability, T/C (second compound 10 µM, first compound 3 µM) 9.75%
10.7 nM: IC50 (second compound 0.1 µM)
15.5 nM: IC50 (second compound 0.0316 µM)
< 9.49 nM: IC50 (second compound 1 µM) | IC50 (second compound 3.16 µM) | IC50 (second compound 10 µM)
